ChEMBL document CHEMBL1142444 (Bioorg Med Chem Lett, 2008)

What was measured:
[1] = target: T1, Muscarinic acetylcholine receptor M1 (Homo sapiens) (UniProt P11229); test: Agonist activity at muscarinic M1 receptor relative to carbachol; format: functional
T1 sequence (whole entry): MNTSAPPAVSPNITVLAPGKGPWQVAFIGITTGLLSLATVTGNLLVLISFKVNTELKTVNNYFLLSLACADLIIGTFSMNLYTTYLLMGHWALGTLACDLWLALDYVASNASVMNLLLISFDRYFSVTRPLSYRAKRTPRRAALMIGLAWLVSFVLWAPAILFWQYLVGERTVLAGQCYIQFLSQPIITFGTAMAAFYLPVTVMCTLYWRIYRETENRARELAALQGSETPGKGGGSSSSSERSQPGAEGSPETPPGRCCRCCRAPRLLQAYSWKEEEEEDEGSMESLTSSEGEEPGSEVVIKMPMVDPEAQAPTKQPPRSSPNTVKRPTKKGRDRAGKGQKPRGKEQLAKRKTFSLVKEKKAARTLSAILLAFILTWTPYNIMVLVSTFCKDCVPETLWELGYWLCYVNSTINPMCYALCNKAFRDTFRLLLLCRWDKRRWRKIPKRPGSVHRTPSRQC

[2] = target: T2, Muscarinic acetylcholine receptor M5 (Homo sapiens, UniProt P08912); test: Agonist activity at muscarinic M5 receptor; format: functional
T2 sequence (P08912 whole entry): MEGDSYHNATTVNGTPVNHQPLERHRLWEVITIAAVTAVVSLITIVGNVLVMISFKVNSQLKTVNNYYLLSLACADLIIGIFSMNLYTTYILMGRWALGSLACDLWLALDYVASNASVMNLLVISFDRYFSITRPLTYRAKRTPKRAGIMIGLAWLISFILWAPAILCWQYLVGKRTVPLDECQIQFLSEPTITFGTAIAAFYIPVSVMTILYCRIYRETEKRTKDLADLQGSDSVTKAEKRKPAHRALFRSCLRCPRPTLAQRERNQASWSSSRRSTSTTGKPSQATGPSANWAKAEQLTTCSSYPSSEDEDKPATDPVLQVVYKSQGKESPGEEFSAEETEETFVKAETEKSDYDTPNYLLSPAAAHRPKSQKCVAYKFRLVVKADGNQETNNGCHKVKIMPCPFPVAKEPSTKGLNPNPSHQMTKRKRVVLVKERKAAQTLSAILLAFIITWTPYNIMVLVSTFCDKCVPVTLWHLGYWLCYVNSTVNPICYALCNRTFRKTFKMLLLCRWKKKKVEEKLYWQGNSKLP

[3] = target: T3, Muscarinic acetylcholine receptor M4 (Homo sapiens, UniProt P08173); test: Agonist activity at muscarinic M4 receptor; format: functional
T3 sequence (P08173 whole entry): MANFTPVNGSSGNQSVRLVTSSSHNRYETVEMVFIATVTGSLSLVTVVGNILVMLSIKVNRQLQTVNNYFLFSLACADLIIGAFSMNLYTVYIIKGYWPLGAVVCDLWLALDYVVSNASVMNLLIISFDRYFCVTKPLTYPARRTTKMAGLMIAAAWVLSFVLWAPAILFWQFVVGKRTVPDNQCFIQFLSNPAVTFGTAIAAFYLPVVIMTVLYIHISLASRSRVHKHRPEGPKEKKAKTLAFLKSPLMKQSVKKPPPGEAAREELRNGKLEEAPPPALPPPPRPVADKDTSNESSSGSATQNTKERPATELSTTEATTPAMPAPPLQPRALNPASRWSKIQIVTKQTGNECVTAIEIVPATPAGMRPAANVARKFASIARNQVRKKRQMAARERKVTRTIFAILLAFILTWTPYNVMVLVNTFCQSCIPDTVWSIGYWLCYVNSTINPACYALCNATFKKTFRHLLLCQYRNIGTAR

[4] = target: Muscarinic acetylcholine receptor M3 (Homo sapiens, UniProt P20309); test: Agonist activity at muscarinic M3 receptor; format: functional
[5] = target: T4, Muscarinic acetylcholine receptor M2 (Homo sapiens, UniProt P08172); test: Agonist activity at muscarinic M2 receptor; format: functional
T4 sequence (P08172 whole entry): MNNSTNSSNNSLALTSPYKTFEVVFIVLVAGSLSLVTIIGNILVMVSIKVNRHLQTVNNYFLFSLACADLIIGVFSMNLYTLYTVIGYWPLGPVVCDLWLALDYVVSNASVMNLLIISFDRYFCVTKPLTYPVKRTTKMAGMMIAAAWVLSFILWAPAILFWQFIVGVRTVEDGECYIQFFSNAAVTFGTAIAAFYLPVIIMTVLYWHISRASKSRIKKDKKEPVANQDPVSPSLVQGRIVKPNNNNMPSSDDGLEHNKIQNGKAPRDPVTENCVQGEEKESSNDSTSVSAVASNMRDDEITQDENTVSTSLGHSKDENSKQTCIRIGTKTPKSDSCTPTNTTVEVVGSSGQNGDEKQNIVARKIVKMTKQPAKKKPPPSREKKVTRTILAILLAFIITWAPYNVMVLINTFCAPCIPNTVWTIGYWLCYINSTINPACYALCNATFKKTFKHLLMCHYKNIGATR

[6] = target: T5, D(2) dopamine receptor (Homo sapiens, UniProt P14416); test: Inhibition of dopamine D2 receptor
[7] = target: T6, Muscarinic acetylcholine receptor M1 (Homo sapiens, UniProt P11229); test: Agonist activity at muscarinic M1 receptor; format: functional
T6 sequence (P11229 whole entry): T1 sequence (whole entry)

[8] = target: T7, Muscarinic acetylcholine receptor M2 (Homo sapiens) (UniProt P08172); test: Agonist activity at muscarinic M2 receptor relative to carbachol; format: functional
T7 sequence (whole entry): T4 sequence (P08172 whole entry)

[9] = target: T8, Muscarinic acetylcholine receptor M5 (Homo sapiens) (UniProt P08912); test: Agonist activity at muscarinic M5 receptor relative to carbachol; format: functional
T8 sequence (whole entry): T2 sequence (P08912 whole entry)

[10] = target: T9, Muscarinic acetylcholine receptor M4 (Homo sapiens) (UniProt P08173); test: Agonist activity at muscarinic M4 receptor relative to carbachol; format: functional
T9 sequence (whole entry): T3 sequence (P08173 whole entry)

[11] = target: T5, D(2) dopamine receptor; test: Inhibition of dopamine D2 receptor at 10 uM; parameters: scale not given: the % may be the effect or the level left

T5 sequence (P14416 whole entry): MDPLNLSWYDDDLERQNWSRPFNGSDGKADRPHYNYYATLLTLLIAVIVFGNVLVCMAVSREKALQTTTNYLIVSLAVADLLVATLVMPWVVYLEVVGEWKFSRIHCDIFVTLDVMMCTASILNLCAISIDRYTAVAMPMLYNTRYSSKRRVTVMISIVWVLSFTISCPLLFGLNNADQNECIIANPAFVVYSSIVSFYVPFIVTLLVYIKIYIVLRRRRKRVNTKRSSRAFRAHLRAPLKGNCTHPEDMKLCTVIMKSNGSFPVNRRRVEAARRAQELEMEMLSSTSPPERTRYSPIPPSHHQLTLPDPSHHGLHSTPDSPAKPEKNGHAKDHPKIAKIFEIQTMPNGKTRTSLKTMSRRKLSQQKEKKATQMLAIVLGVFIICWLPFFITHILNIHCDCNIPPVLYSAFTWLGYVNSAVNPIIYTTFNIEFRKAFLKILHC
Muscarinic acetylcholine receptor M3, sequence (P20309 whole entry): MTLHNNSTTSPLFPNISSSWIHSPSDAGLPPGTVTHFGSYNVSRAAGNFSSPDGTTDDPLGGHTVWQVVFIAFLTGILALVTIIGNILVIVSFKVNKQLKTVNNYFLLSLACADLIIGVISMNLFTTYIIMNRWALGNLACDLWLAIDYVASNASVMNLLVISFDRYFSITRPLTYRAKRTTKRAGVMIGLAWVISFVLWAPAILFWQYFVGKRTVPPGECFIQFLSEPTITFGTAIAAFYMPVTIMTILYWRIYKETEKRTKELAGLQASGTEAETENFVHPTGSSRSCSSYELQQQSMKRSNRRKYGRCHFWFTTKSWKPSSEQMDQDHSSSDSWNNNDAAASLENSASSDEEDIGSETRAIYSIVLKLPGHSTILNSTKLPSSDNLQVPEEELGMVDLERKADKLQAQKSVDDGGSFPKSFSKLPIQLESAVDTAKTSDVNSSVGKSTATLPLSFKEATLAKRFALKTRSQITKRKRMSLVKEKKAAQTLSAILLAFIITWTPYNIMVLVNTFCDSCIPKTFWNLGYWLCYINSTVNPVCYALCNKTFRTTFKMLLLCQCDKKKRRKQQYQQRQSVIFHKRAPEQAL

SMILES | Activity [1] [%] | EC50 [2] [µM] | EC50 [3] [µM] | EC50 [4] [µM] | EC50 [5] [µM] | IC50 [6] [µM] | EC50 [7] [µM] | Activity [8] [%] | Activity [9] [%] | Activity [10] [%] | Activity [11] [%]
O=c1[nH]c2cc(F)ccc2n1C1CCN(C2CCN(Cc3ccccc3C(F)(F)F)CC2)CC1 | 80 | > 50 | > 50 | > 50 | > 50 | 2.69 | – | – | – | – | –
O=c1[nH]c2ccccc2n1C1CCN(C2CCN(Cc3ccccc3[N+](=O)[O-])CC2)CC1 | 48 | > 50 | > 50 | > 50 | > 50 | 1.13 | 0.12 | – | – | – | –
O=c1[nH]c2cc(Cl)ccc2n1C1CCN(C2CCN(Cc3ccccc3Cl)CC2)CC1 | 49 | > 50 | > 50 | > 50 | > 50 | – | 1.8 | – | – | – | –
O=c1[nH]c2c(F)cccc2n1C1CCN(C2CCN(Cc3ccccc3C(F)(F)F)CC2)CC1 | 75 | > 50 | > 50 | > 50 | > 50 | > 10 | – | – | – | – | –
N#Cc1ccccc1CN1CCC(N2CCC(n3c(=O)[nH]c4cc(Cl)ccc43)CC2)CC1 | 27 | > 50 | > 50 | > 50 | > 50 | – | 1.6 | – | – | – | –
Cc1ccccc1CN1CCC(N2CCC(n3c(=O)[nH]c4c(F)cccc43)CC2)CC1 | 73 | > 50 | > 50 | > 50 | > 50 | > 10 | – | – | – | – | –
Cc1ccccc1CN1CCC(N2CCC(n3c(=O)[nH]c4ccccc43)CC2)CC1 | 82 | > 50 | – | – | > 50 | 2.65 | – | – | – | – | –
O=c1[nH]c2cc(Cl)ccc2n1C1CCN(C2CCN(Cc3ccccc3C(F)(F)F)CC2)CC1 | 83 | > 50 | > 50 | > 50 | > 50 | – | 1.5 | – | – | – | –
CCOC(=O)N1CCC(N2CCC(n3c(=O)[nH]c4ccccc43)CC2)CC1 | – | 0.0343 | 0.0091 | – | 0.0119 | > 10 | – | 80.6 | 50.8 | 96.9 | –
O=c1[nH]c2ccccc2n1C1CCN(C2CCN(Cc3ccccc3Cl)CC2)CC1 | 44 | > 50 | > 50 | > 50 | > 50 | 2.06 | 0.26 | – | – | – | –
O=c1[nH]c2cc(Cl)ccc2n1C1CCN(C2CCN(Cc3ccccc3[N+](=O)[O-])CC2)CC1 | 42 | > 50 | > 50 | > 50 | > 50 | – | 1.1 | – | – | – | –
Cc1ccccc1CN1CCC(N2CCC(n3c(=O)[nH]c4ccc(F)cc43)CC2)CC1 | 84 | > 50 | > 50 | > 50 | > 50 | > 10 | – | – | – | – | –
Cc1ccccc1CN1CCC(N2CCC(n3c(=O)[nH]c4cc(Cl)ccc43)CC2)CC1 | 84 | > 50 | > 50 | > 50 | > 50 | – | 1.03 | – | – | – | 35
O=c1[nH]c2cc(Cl)ccc2n1C1CCN(C2CCN(Cc3ccccc3)CC2)CC1 | 74 | > 50 | > 50 | > 50 | > 50 | – | 0.356 | – | – | – | 35
N#Cc1ccccc1CN1CCC(N2CCC(n3c(=O)[nH]c4ccccc43)CC2)CC1 | 23 | > 50 | > 50 | > 50 | > 50 | – | 0.49 | – | – | – | 40
O=c1[nH]c2ccccc2n1C1CCN(C2CCN(Cc3ccccc3C(F)(F)F)CC2)CC1 | – | > 50 | > 50 | > 50 | > 50 | – | 0.41 | – | – | – | 30
Cc1ccccc1CN1CCC(N2CCC(n3c(=O)[nH]c4cc(F)ccc43)CC2)CC1 | 85 | > 50 | > 50 | > 50 | > 50 | – | – | – | – | – | 40
O=c1[nH]c2ccc(F)cc2n1C1CCN(C2CCN(Cc3ccccc3C(F)(F)F)CC2)CC1 | – | > 50 | > 50 | > 50 | > 50 | > 10 | – | – | – | – | –
